Experimental data from patent US20130315886A1, “RETROELEMENTS AND MENTAL DISORDERS AND METHODS OF MEASURING L1 RETROTRANSPOSITION” (Salk Institute for Biological Studies, priority 2009, published 2013).

Legend:
[1] = system: L1 5′UTR promoter; experiment: L1 5′UTR-Luc luciferase reporter assay in MeCP2 KO neuroepithelial cells; type: cell-based, mouse; conditions: Sox2 overexpression in MeCP2 KO neuroepithelial cells
Procedure: Rat NSCs were isolated, characterized and cultured as described (31,32). For neuronal differentiation, cells were cultured in N2 medium (Invitrogen) containing retinoic acid (RA, 1 μM, Sigma) and forskolin (5 μM, Sigma) for 4 days (11). Freshly isolated neuroepithelial cells from time-pregnant midgestation (E11.5) telencephalons from WT and MeCP2 KO sibling mouse embryos from the same background (C57BL/6J) were briefly cultured for 2-3 passages in FGF-2 as described elsewhere (19). Primary skin fibroblasts were isolated from tail biopsy and cultured in DMEM (Invitrogen) with 10% FBS (Invitrogen). Samples of all isolated cells were used for genotyping using previously described primers (33). Plasmid transfections were done by electroporation following the manufacturer's instructions (Amaxa Biosystem).
The L1 5′UTR-Luc plasmid was methylated by […] according to the manufacturer's protocol. Complete methylation was checked by digestion with Hpa II restriction enzyme. Luciferase activity was measured with the Dual-Luciferase reporter assay system (Promega) according to the manufacturer's protocol. Luciferase activity was usually measured 48 h after transfection. A plasmid containing the Renilla luciferase gene was used as an internal control. All the experiments were done at least 3 times independently and transfection efficiency was about 30% for all samples. […]

[2] = system: L1 promoter region (5′UTR); experiment: Chromatin immunoprecipitation (ChIP) on the endogenous rat L1 promoter region in NSCs; type: cell-based; conditions: 500 ng/ml, 4 days
From the text: ChIP assay was done essentially following the manufacturer's protocol using a ChIP assay kit (Upstate). Antibodies used were anti-MeCP2 (Upstate), Sox2 (Chemicon), and IgG. Purified DNA was amplified by PCR using primers for the rat L1 5′UTR promoter region (L1.3, accession # X03095).

[3] = system: MeCP2 and Sox2; experiment: Co-immunoprecipitation between MeCP2 and Sox2 in NSCs; type: cell-based, rat; conditions: in the presence of 5-Aza
Procedure: Immunofluorescence for EGFP was performed as previously described (11). A non-transgenic animal was used to measure the background fluorescence in the brain and to establish a threshold for detection. Western blotting was carried out using standard protocols with the following antibodies: mouse anti-Actin (1/500, Ambion), rabbit anti-MeCP2 (1/1000, Imgenex or Upstate), and rabbit anti-Sox2 (1/100, Chemicon). All secondary antibodies were purchased from Jackson ImmunoResearch. For co-immunoprecipitation, the Nuclear Complex Co-IP kit (Active Motif) was used, following the manufacturer's protocol with the highest stringency buffers.

[4] = system: L1 5′UTR CpG islands; experiment: Bisulfite analysis of L1 5′UTR DNA methylation in NSCs; type: cell-based, rat; conditions: treatment for 4-days
Procedure: Genomic DNA from NSCs was isolated using standard phenol-chloroform extraction techniques. Subsequently, DNA was digested with the restriction enzyme EcoRI and the bisulfite conversion reaction was performed using the Epitect kit (Quiagen), following manufacturer's instructions. Primers were designed based on the rat L1 sequence Mlvi2, using Methyl Primer Express; […]. PCR products were cloned into TOPO TA 2.1 plasmids (Invitrogen) and 40 bacterial colonies were analyzed by sequencing.

| Sox2 binding / association to the L1 promoter region (ChIP) ([2]; listed as 5-Azacitidine) | Compound | reduction of luciferase expression (L1 promoter activity) [1] | MeCP2 ChIP signal / association to the L1 promoter region [2] | Sox2 binding / association to the L1 promoter region (ChIP) [2] | MeCP2 ChIP signal / association to the L1 promoter region ([2]; listed as 5-Azacitidine) | amount of MeCP2 in association with Sox2 in solution (Co-IP) [3] | methylation of the 5′UTR L1 region (5 CpG sites, bisulfite) [4] |
| --- | --- | --- | --- | --- | --- | --- | --- |
| – | Sox2: transcriptional factor Sox2, overexpressed in MeCP2 KO neuroepithelial cells | approximately 50% | – | – | – | – | – |
| not Sox2 association | Nc1ncn([C@@H]2O[C@H](CO)[C@@H](O)[C@H]2O)c(=O)n1 [5-Azacytidine] | – | the MeCP2 ChIP signal was lost | did not prevent Sox2 binding to the L1 promoter | reduced MeCP2 | increased the amount of MeCP2 in association with Sox2 in solution | completely removed methyl radicals |
